Experimental data: patent publication US20150374689A1, “Use of Levosimendan to Treat Left Ventricular Systolic Dysfunction in Patients Undergoing Cardiac Surgery Requiring Cardiopulmonary Bypass” (TENAX Therapeutics, Inc., priority 2014, published 2015)

Columns and labels:
[1] = cited from earlier work; for formation of the metabolite: patients undergoing cardiac surgery
[2] = test system: patients with left ventricular systolic dysfunction undergoing cardiac surgery requiring cardiopulmonary bypass; assay: Double-blind, randomized, placebo-controlled clinical trial of levosimendan (Example 1); assay type: in vivo, human
Procedure: A randomized, double-blind, placebo-controlled, multicenter study of levosimendan is conducted in subjects with pre-existing left ventricular systolic dysfunction (documented (i) LVEF≦25% in CABG surgery patients, or (ii) LVEF≦35% in CABG with aortic valve surgery patients, CABG with mitral valve surgery patients, or isolated mitral valve surgery patients) with or without heart failure (NYHA functional Class I-IV), undergoing (1) CABG surgery, (2) CABG with aortic valve surgery, (3) CABG with mitral valve surgery, or (4) isolated mitral valve surgery.
All patients are randomized with planned CPB. Approximately 760 subjects are enrolled in the study. Subjects are randomly assigned to receive either levosimendan or a matching placebo in a 1:1 ratio. The study is divided into a screening phase, a double-blind treatment phase, a double-blind post-treatment and follow-up phase from hospital discharge through Day 30. Day 0 is the day of study drug (levosimendan or matching placebo) initiation. All randomly assigned subjects are followed for 90 days, including subjects who were randomly assigned to treatment but not treated.
In the double-blind treatment phase, every attempt is made to start treatment with study drug as soon as possible prior to surgery. However, in all cases study drug is initiated after arterial line insertion and before skin incision. If a Swan-Ganz catheter is planned, it is preferable to insert it prior to study drug initiation. Study drug is administered as described below. Subjects who were randomly assigned to treatment but not treated will be followed (a) through Day 5 for perioperative MI and the need for IABP/LVAD/ECMO, (b) through postoperative […] for postoperative MI (Day 6-10) and postoperative dialysis, and (c) the occurrence of all-cause mortality through Day 90. All subjects may receive additional standard of care medications including inotropes, vasopressors, vasopressin, antiarrhythmics, diuretics, nitrates, and/or nitric oxide as needed. Due to the potential hypotensive effects of the study drug, the concomitant use of vasodilatory drugs should be used with caution.
Subjects are assigned to 1 of 2 treatment groups (levosimendan 0.2 μg/kg/min for first hour, followed by 0.1 μg/kg/min for the next 23 hours or matching placebo) in a 1:1 ratio based on a computer-generated randomization schedule prepared before the start of the study by an independent statistical group not otherwise involved in the conduct or analysis of the study.
The concentration of the diluted infusion is about 50 μg/mL in 5% dextrose (12.5 mg/255 mL in a 250 mL bag; 25 mg/510 mL, 2 vials in a 500 mL bag). The i.v. tubing is primed to fill the volume to the i.v. entry site before starting the infusion. The diluted infusion is administered intravenously by a peripheral or central route. No other treatments are administered via the same line, and no bolus of study drug is administered. Study drug is infused as a continuous infusion of 0.2 μg/kg/min over the first 60 minutes. After 1 hour, the flow rate is decreased to a continuous infusion of 0.1 μg/kg/min. This dose of study drug is continued for the next 23 hours. On completion of the 24-hour infusion period, the study drug infusion is switched off abruptly.
All-cause mortality data (e.g., the cause and date of death) is collected for all subjects up to Day 30 (+5). A follow-up call documents mortality between Day 30 visit and Day 90. […]

[3] = through Day 5, same 24-hour infusion regimen

SMILES	share of total dose metabolised by the minor pathway (reduction in the intestine to OR-1855) ([1]; of the total levosimendan dose)	rate of all-cause death at Day 30 as compared to placebo ([2]; Day 30, same 24-hour infusion regimen)	peri- and postoperative morbidity and mortality as compared to placebo ([2]; levosimendan i.v. 0.2 μg/kg/min for first hour, then 0.1 μg/kg/min for 23 hours, started before skin incision, plus standard care)	rate of perioperative MI as compared to placebo [2, 3]	use of mechanical assist (IABP, LVAD, or ECMO) as compared to placebo [2, 3]	need for dialysis as compared to placebo ([2]; through Day 30, same 24-hour infusion regimen)	formation of the metabolite [1]	time at which maximum concentrations are seen ([1]; after starting a 24-hour infusion, heart failure patients)	elimination half-life ([1]; heart failure patients)
CC1CC(=O)NN=C1c1ccc(NN=C(C#N)C#N)cc1 (single isomer, unassigned; (-)) [levosimendan, (−)-enantiomer of [[4-(1,4,5,6-tetrahydro-4-methyl-6-oxo-3-pyridazinyl)phenyl]hydrazono]prop anedinitrile]	approximately 6%	smaller	reduces	smaller	reduced	lesser	–	–	–
C[C@@H]1CC(=O)NN=C1c1ccc(N)cc1 [OR-1855]	–	–	–	–	–	–	delayed	–	–
CC(=O)Nc1ccc(C2=NNC(=O)C[C@H]2C)cc1 [OR-1896]	–	–	–	–	–	–	delayed	2 to 4 days	70 to 80 h
